According to US11723889B2, “Amyloid fiber formation limiter or inhibitor” (Omoidesouzou Co., Ltd., priority 2014, dated 2023):

Key:
Type in all cases: in vivo, human
[1] = tested on: cutaneous amyloidosis; assay: Oral tranilast treatment of patients with cutaneous amyloidosis / cutaneous lichen amyloidosis (Cases 1-3), clinical observation of skin symptoms
Text: 1. Confirmation that the agent for suppressing or inhibiting an amyloid fibril formation of the present invention has a therapeutic effect against cutaneous amyloidosis.
patient one observed with symptoms of cutaneous amyloidosis specific pigment-associating invasion and itch in the upper back had been treated without tranilast for an initial duration of 4 years, however, no therapeutic effect was observed. Therefore, the treatment shifted to the use of tranilast. The above-mentioned patient was administered orally with a 100 mg capsule of tranilast (brand name: Rizaben, Kissei Pharmaceutical Co., Ltd.) three times a day. […] Worsening or relapse of rash was not observed at least 3 years afterwards.
Therefore, the treatment shifted to the use of tranilast. The above-mentioned patient was administered orally with a 100 mg capsule of tranilast (brand name: Rizaben, Kissei Pharmaceutical Co., Ltd.) three times a day. From day 16 (Jul. 16, 2014) (see FIG. 1B) after the start of oral administration on Jun. […] The degree of amelioration of rash increased day by day (see FIGS. 1C to 1E).
A patient observed with chronic eczema with rash along with strong itch in the upper back for several years started the treatment with tranilast. The patient was administered orally with a 100 mg capsule of tranilast (brand name: Rizaben, Kissei Pharmaceutical Co., Ltd.) three times a day. When the oral administration started on Jul. 29, 2014, amyloid deposited brown papule was densely lichenified (see FIG. 2A).

[2] = tested on: dementia; assay: Oral tranilast in a patient with dementia (Case 4), testing methods for dementia HDS-R and MMSE
Procedure: (§1) 2. Confirmation that the agent for suppressing or inhibiting an amyloid fibril formation of the present invention has a therapeutic effect against cerebral amyloidosis. Because it was shown that tranilast has the effect of suppressing amyloid fibril formation in the skin, whether dementia and Alzheimer's disease arising from amyloid fibril deposition in the brain could be ameliorated was studied. A patient with dementia (patient two) was administered orally with a 100 mg capsule of tranilast (brand name: Rizaben, Kissei Pharmaceutical Co., Ltd.) three times a day.

[3] = tested on: Alzheimer's disease; assay: Oral tranilast in a patient with Alzheimer's disease (Case 5), testing methods for dementia HDS-R and MMSE
Procedure: as §1, with “Alzheimer's disease (person)” for “dementia (patient two)”, “day. About 5 months after the start of administration of tranilast on Oct.” for “day.”

[4] = Case 1, 100 mg capsule orally three times a day, within another 1 month (about 2 months after start)
[5] = 1 year and 4 months after start of administration (December 2013)

COc1ccc(/C=C/C(=O)Nc2ccccc2C(=O)O)cc1OC [tranilast, N-(3,4-dimethoxycinnamoyl)anthranilic acid]
pigmentation ([1]; Case 1, upper back, 100 mg capsule orally three times a day, about 1 month after start of oral administration): started to thin
itch [1, 4]: reduced
rash [1, 4]: largely ameliorated
worsening or relapse of rash ([1]; Case 1, at least 3 years afterwards): not observed
amyloid deposited brown papule ([1]; Case 2, 100 mg capsule orally three times a day, day 151 after start of oral administration): almost disappeared
amyloid deposited brown papule ([1]; Case 2, 100 mg capsule orally three times a day, from day 16 after start of oral administration): thinned, decreased in size, and ameliorated clearly
condition (papule almost disappeared) maintained until ([1]; Case 2, day after start of oral administration): ≥ 238 days
symptoms (densely lichenified amyloid deposited brown papule) ([1]; Case 3, upper back, 100 mg capsule orally three times a day, day 15 after start): improvement in the symptoms was observed
symptoms (densely lichenified amyloid deposited brown papule) ([1]; Case 3, 100 mg capsule orally three times a day, day 29 after start): clear improvement in the symptoms was observed
improved condition maintained until ([1]; Case 3, day after start of oral administration): ≥ 89 days
effect by two testing methods for dementia (HDS-R and MMSE) ([2]; 100 mg capsule orally three times a day, 1 year and 4 months after start): clear ameliorating effect
HDS-R Value [2, 5]: 20
MMSE Value [2, 5]: 25
HDS-R Value ([2]; 5 months after start of administration (January 2013), 23 at 1 year and 5 months before start): 15
MMSE Value ([2]; 5 months after start of administration (January 2013), 27 at 1 year and 5 months before, 28 at 3 years and 10 months before): 22
effect on the symptoms of Alzheimer's type dementia by HDS-R and MMSE ([3]; 100 mg capsule orally three times a day, about 5 months after start): clear ameliorating effect
HDS-R Value ([3]; about 5 months after start (Mar. 19, 2015), value at start of administration 9): 12
MMSE Value ([3]; about 5 months after start (Mar. 19, 2015), value at start of administration 14): 22
